Results on eleven compounds are retold here after US20260193249A1, “PREPARATION OF PYRAZOLOPYRIDINE AND TRIAZOLOPYRIDINE DERIVATIVES AS NOVEL DIACYLGLYCERIDE O-ACYLTRANSFERASE 2 INHIBITORS” (Merck Sharp & Dohme LLC, priority 2022, published 2026).

This assay has as its target T1, human DGAT2 (Homo sapiens, UniProt Q96PD7).
T1 construct: made in house; host or cells: Sf-9 insect cells (baculovirus), membrane fraction
T1 sequence (Q96PD7 1-388): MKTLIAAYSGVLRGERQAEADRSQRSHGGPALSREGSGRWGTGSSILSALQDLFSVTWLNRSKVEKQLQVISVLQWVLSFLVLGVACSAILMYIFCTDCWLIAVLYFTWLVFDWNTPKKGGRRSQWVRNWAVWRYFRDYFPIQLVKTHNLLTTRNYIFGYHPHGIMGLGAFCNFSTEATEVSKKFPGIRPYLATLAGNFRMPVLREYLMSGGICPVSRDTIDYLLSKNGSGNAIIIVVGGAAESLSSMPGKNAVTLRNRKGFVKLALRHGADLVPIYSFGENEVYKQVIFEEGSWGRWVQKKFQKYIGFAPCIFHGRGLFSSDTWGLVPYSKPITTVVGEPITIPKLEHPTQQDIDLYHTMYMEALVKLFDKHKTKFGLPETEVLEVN
The assay can be described thus: DGAT2 Enzymatic Activity Assay. The class given is biochemical. As to conditions: membrane prep of Sf-9 insect cells expressing hDGAT2; 13C18-triolein product by LC/MS/MS; 25 μM diolein, 5 μM 13C oleoyl-CoA. The procedure:
Sf-9 insect cells were maintained in Grace's insect cell culture medium with 10% heated-inactivated fetal bovine serum, 1% Pluronic F-68 and 0.14 μg/ml Kanamycine sulfate at 27° C. in a shaker incubator. After infection with untagged baculovirus expressing human DGAT2 (hDGAT2) at multiplicity of infection (MOI) 3 for 48 hours, cells were harvested. Cell pellets were suspended in buffer containing 10 mM Tris-HCl pH 7.5, 1 mM EDTA, 250 mM sucrose and Complete Protease Inhibitor Cocktail (Sigma Aldrich), and sonicated on ice. Cell debris were removed by centrifugation at 2000×g for 15 minutes. Membrane fractions were isolated by ultracentrifugation (100,000×g), resuspended in the same buffer, and frozen (−80° C.) for later use. The protein concentration was determined with the Pierce™ BCA Protein Assay Kit (Thermo Fisher Scientific).
LC/MS/MS analyses were performed using Thermal Fisher's LX4-TSQ Vantage system. This system consists of an Agilent binary high-performance liquid chromatography (HPLC) pump and a TSQ Vantage triple quadrupole MS/MS instrument. For each sample, 2 μL samples from the top organic layer of in-plate liquid-liquid extraction were injected onto a Thermo Betabasic C4 column (2.1 mm×20 mm, 5 μm particle size). The samples were then eluted using the following conditions; mobile phase: Isopropanol:acetonitrile/10 mM ammonium formate=50/35/15 (v/v/v), flow rate: 0.8 mL/min, temperature: 25° C. Data was acquired in positive mode using a heated electrospray ionization (HESI) interface. […] The peak area was integrated by Xcalibur Quan software. The ratio between the ^13C18triolein generated in the reaction and spiked in internal standard ^13C21-triolein was used to generate percentage inhibition and IC50 values. Compound percentage inhibition was calculated by the following formula: Inhibition %=1−[(compound response−low control)/(high control−low control)]×100%.
DGAT2 activity was determined by measuring the amount of enzymatic product ^13C18-triolein (^13C-1,2,3-Tri(cis-9-octadecenoyl)glycerol) using the membrane prep mentioned above. The assay was carried out in ABgene 384-well assay plates in a final volume of 25 μL at rt.

In turn, `CC1(NC(=O)c2cc3cc(Oc4ncc(Cl)cc4OCC(F)(F)F)ccn3n2)CS(=O)(=O)C1` [Example 15, 5-((5-Chloro-3-(2,2,2-trifluoroethoxy)pyridin-2-yl)oxy)-N-(3-methyl-1,1-dioxidothietan-3-yl)pyrazolo[1,5-a]pyridine-2-carboxamide] registered an IC50 of 2.5 nM.
In turn, `CC1(NC(=O)c2cc3cc(Oc4ncc(F)cc4OCC(F)(F)F)ccn3n2)CS(=O)(=O)C1` [Example 17, 5-((5-Fluoro-3-(2,2,2-trifluoroethoxy)pyridin-2-yl)oxy)-N-(3-methyl-1,1-dioxidothietan-3-yl)pyrazolo[1,5-a]pyridine-2-carboxamide] returned a half-maximal inhibitory concentration (IC50) of 72 nM.
For the compound `C[C@@]1(NC(=O)c2cc3cc(Oc4ncc(F)cc4OCC(F)(F)F)ccn3n2)CCS(=O)(=O)C1` [Example 18, (R)-5-((5-Fluoro-3-(2,2,2-trifluoroethoxy)pyridin-2-yl)oxy)-N-(3-methyl-1,1-dioxidotetrahydrothiophen-3-yl)pyrazolo[1,5-a]pyridine-2-carboxamide], the IC50 is 33 nM.
Take `Cc1c(C(=O)NC2(C)CCS(=O)(=O)CC2)nn2ccc(Oc3ncccc3OCC(F)(F)F)cc12` [Example 19, 3-Methyl-N-(4-methyl-1,1-dioxidotetrahydro-2H-thiopyran-4-yl)-5-((3-(2,2,2-trifluoroethoxy)pyridin-2-yl)oxy)pyrazolo[1,5-a]pyridine-2-carboxamide]: the IC50 was found to be 7.2 nM.
In turn, `Cc1c(C(=O)NC2(C)CS(=O)(=O)C2)nn2ccc(Oc3ncccc3OCC(F)(F)F)cc12` [Example 20, 3-Methyl-N-(3-methyl-1,1-dioxidothietan-3-yl)-5-((3-(2,2,2-trifluoroethoxy)pyridin-2-yl)oxy)pyrazolo[1,5-a]pyridine-2-carboxamide] showed an IC50 of 171 nM.
Consider `CC1(NC(=O)c2nn3ccc(Oc4ncccc4OCC(F)(F)F)cc3c2F)CS(=O)(=O)C1` [Example 22, 3-Fluoro-N-(3-methyl-1,1-dioxidothietan-3-yl)-5-((3-(2,2,2-trifluoroethoxy)pyridin-2-yl)oxy)pyrazolo[1,5-a]pyridine-2-carboxamide], for which the IC50 stood at 372 nM.
`C[C@@]1(NC(=O)c2nn3ccc(Oc4ncccc4OCC(F)(F)F)cc3c2F)CCS(=O)(=O)C1` [Example 23, (R)-3-Fluoro-N-(3-methyl-1,1-dioxidotetrahydrothiophen-3-yl)-5-((3-(2,2,2-trifluoroethoxy)pyridin-2-yl)oxy)pyrazolo[1,5-a]pyridine-2-carboxamide]: the concentration for half-maximal inhibition (IC50) was found to be 817 nM.
In turn, `CC1(NC(=O)c2nn3ccc(Oc4ncccc4OCC(F)(F)F)cc3c2Cl)CS(=O)(=O)C1` [Example 25, 3-Chloro-N-(3-methyl-1,1-dioxidothietan-3-yl)-5-((3-(2,2,2-trifluoroethoxy)pyridin-2-yl)oxy)pyrazolo[1,5-a]pyridine-2-carboxamide] had an IC50 of 30 nM.
With `C[C@@]1(NC(=O)c2nn3ccc(Oc4ncccc4OCC(F)(F)F)cc3c2Cl)CCS(=O)(=O)C1` [Example 26, (R)-3-Chloro-N-(3-methyl-1,1-dioxidotetrahydrothiophen-3-yl)-5-((3-(2,2,2-trifluoroethoxy)pyridin-2-yl)oxy)pyrazolo[1,5-a]pyridine-2-carboxamide], the IC50 stood at 388 nM.
In turn, `C[C@]1(NC(=O)c2nn3ccc(Oc4ncccc4OCC(F)(F)F)cc3c2Cl)CCS(=O)(=O)C1` [Example 27, (S)-3-Chloro-N-(3-methyl-1,1-dioxidotetrahydrothiophen-3-yl)-5-((3-(2,2,2-trifluoroethoxy)pyridin-2-yl)oxy)pyrazolo[1,5-a]pyridine-2-carboxamide] displayed an IC50 of 400 nM.
The same measure for `CC1(NC(=O)c2nn3ccc(Oc4ncc(F)cc4OCC(F)(F)F)cc3c2F)CS(=O)(=O)C1` [Example 28, 3-Fluoro-5-((5-fluoro-3-(2,2,2-trifluoroethoxy)pyridin-2-yl)oxy)-N-(3-methyl-1,1-dioxidothietan-3-yl)pyrazolo[1,5-a]pyridine-2-carboxamide]: 129 nM.

The term IC50 denotes the concentration needed to halve the response being measured.
